Results reported in PubChem BioAssay AID248 (DTP/NCI, 2004).
Values joined by “and” are separate entries in the source; they are usually repeats but may differ in a detail not shown here. Equal entries are not always repeated. Toxic doses and inconclusive results are not listed. Cut-off read from the data, not from the text of the source: active = T/C of 150% or more; inactive = T/C below 125%.

Test system: L1210 leukemia ip in BDF1 mice, survival T/C
Test: NCI In Vivo Anticancer Drug Screen. Data for tumor model L1210 Leukemia (intraperitoneal) in B6D2F1 (BDF1) mice
Settings: endpoint: mean survival time, higher = longer survival
Procedure, shortened: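 In this screen, tumor-bearing mice given compound are compared to those given vehicle, and their survival values are reported as a treated-to-control quotient.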

[1] = dose: 50.0 mg/kg/injection, schedule: Q04DX003 (ip), vehicle: Klucel (hydroxypropylcellulose) (HPC)
[2] = dose: 100.0 mg/kg/injection, schedule: Q01DX001 (ip), vehicle: Klucel (hydroxypropylcellulose) (HPC)
[3] = dose: 400.0 mg/kg/injection, schedule: Q01DX001 (ip), vehicle: Klucel (hydroxypropylcellulose) (HPC)
[4] = dose: 50.0 mg/kg/injection, schedule: Q01DX009 (ip), vehicle: saline with Tween-80
[5] = dose: 100.0 mg/kg/injection, schedule: Q01DX009 (ip), vehicle: saline with Tween-80
[6] = dose: 100.0 mg/kg/injection, schedule: Q04DX003 (ip), vehicle: saline with Tween-80
[7] = dose: 200.0 mg/kg/injection, schedule: Q01DX009 (ip), vehicle: saline with Tween-80
[8] = dose: 200.0 mg/kg/injection, schedule: Q04DX003 (ip), vehicle: saline with Tween-80
[9] = dose: 400.0 mg/kg/injection, schedule: Q01DX009 (ip), vehicle: saline with Tween-80
[10] = dose: 100.0 mg/kg/injection, schedule: Q01DX001 (ip), vehicle: saline with Tween-80
[11] = dose: 200.0 mg/kg/injection, schedule: Q01DX001 (ip), vehicle: saline with Tween-80
[12] = dose: 400.0 mg/kg/injection, schedule: Q01DX001 (ip), vehicle: saline with Tween-80
[13] = dose: 100.0 mg/kg/injection, schedule: Q04DX003 (ip), vehicle: acetone
[14] = dose: 200.0 mg/kg/injection, schedule: Q04DX003 (ip), vehicle: acetone
[15] = dose: 400.0 mg/kg/injection, schedule: Q04DX003 (ip), vehicle: acetone
[16] = dose: 50.0 mg/kg/injection, schedule: Q01DX009 (ip), vehicle: Klucel (hydroxypropylcellulose) (HPC)
[17] = dose: 100.0 mg/kg/injection, schedule: Q01DX009 (ip), vehicle: Klucel (hydroxypropylcellulose) (HPC)
[18] = dose: 100.0 mg/kg/injection, schedule: Q04DX003 (ip), vehicle: Klucel (hydroxypropylcellulose) (HPC)
[19] = dose: 200.0 mg/kg/injection, schedule: Q01DX009 (ip), vehicle: Klucel (hydroxypropylcellulose) (HPC)
[20] = dose: 200.0 mg/kg/injection, schedule: Q04DX003 (ip), vehicle: Klucel (hydroxypropylcellulose) (HPC)
[21] = dose: 400.0 mg/kg/injection, schedule: Q01DX009 (ip), vehicle: Klucel (hydroxypropylcellulose) (HPC)
[22] = dose: 400.0 mg/kg/injection, schedule: Q04DX003 (ip), vehicle: Klucel (hydroxypropylcellulose) (HPC)
[23] = dose: 100.0 mg/kg/injection, schedule: Q04DX003 (ip), vehicle: saline

Measured: T/C

COc1ccc(C[n+]2cc([O-])on2)cc1
inactive: dose: 12.5 mg/kg/injection, schedule: Q01DX001 (ip), vehicle: Klucel (hydroxypropylcellulose) (HPC) 101 % of control | dose: 12.5 mg/kg/injection, schedule: Q04DX003 (ip), vehicle: Klucel (hydroxypropylcellulose) (HPC) 104 % of control | dose: 25.0 mg/kg/injection, schedule: Q01DX001 (ip), vehicle: Klucel (hydroxypropylcellulose) (HPC) 99 % of control | dose: 25.0 mg/kg/injection, schedule: Q04DX003 (ip), vehicle: Klucel (hydroxypropylcellulose) (HPC) 104 % of control | dose: 28.75 mg/kg/injection, schedule: Q01DX009 (ip), vehicle: Klucel (hydroxypropylcellulose) (HPC) 114 % of control | dose: 50.0 mg/kg/injection, schedule: Q01DX001 (ip), vehicle: Klucel (hydroxypropylcellulose) (HPC) 99 % of control | [1] 104 % of control | dose: 57.5 mg/kg/injection, schedule: Q01DX009 (ip), vehicle: Klucel (hydroxypropylcellulose) (HPC) 103 % of control | dose: 75.0 mg/kg/injection, schedule: Q04DX003 (ip), vehicle: other 106 % of control | [2] 102 % of control | dose: 115.0 mg/kg/injection, schedule: Q01DX009 (ip), vehicle: Klucel (hydroxypropylcellulose) (HPC) 120 % of control | dose: 115.0 mg/kg/injection, schedule: Q04DX003 (ip), vehicle: other 87 % of control | [3] 108 % of control

S=c1[nH]c2nc(Cl)c(Cl)nc2[nH]1
inactive: [4] 95 % of control | [5] 91 % of control | [6] 97 % of control | [7] 100 % of control | [8] 102 % of control

Oc1cc(O)c2c(c1)OC(c1ccc(O)c(O)c1)C(O)C2c1c(O)cc(O)c2c1OC(c1ccc(O)c(O)c1)C(O)C2 (stereo unspecified)
inactive: [5] 101 % of control | [7] 97 % of control | [9] 93 % of control

CN(C)CCN(C)C(=O)C(c1ccccc1)C1CCCCC1 (stereo unspecified)
inactive: dose: 75.0 mg/kg/injection, schedule: Q01DX001 (ip), vehicle: saline 103 % of control | dose: 150.0 mg/kg/injection, schedule: Q01DX001 (ip), vehicle: saline 97 % of control

CCC(=O)N(C)c1cccc(O)c1
inactive: [10] 114 % of control | [11] 94 % of control | [12] 97 % of control

CCOC(=O)C(N=Nc1nn[nH]n1)C(C)=O (stereo unspecified)
inactive: [13] 109 % of control | [14] 94 % of control | [15] 108 % of control

CCOC(=O)c1c[nH]c2c(Cl)ccc(-c3ccccc3)c2c1=O
inactive: [10] 98 % of control | [11] 96 % of control | [12] 93 % of control

CC(=O)OC1CCC2(C)C(CCC3C4CC=C(C(C)=O)C4(C)OC(=O)CC32)C1 (stereo unspecified)
inactive: dose: 12.5 mg/kg/injection, schedule: Q01DX009 (ip), vehicle: Klucel (hydroxypropylcellulose) (HPC) 98 % of control | dose: 25.0 mg/kg/injection, schedule: Q01DX009 (ip), vehicle: Klucel (hydroxypropylcellulose) (HPC) 96 % of control | [16] 98 % of control

O=[N+]([O-])c1ccc(O)c(C=NCC2CCCC[N-]2)c1.O=[N+]([O-])c1ccc(O)c(C=NCC2CCCC[N-]2)c1.[Ni+2] (stereo unspecified)
inactive: [6] 90 % of control | [8] 90 % of control

Cc1c(Cl)cccc1NC(=O)C(c1ccccc1)c1ccccc1
inactive: [17] 89 % of control | [18] 101 % of control | [19] 94 % of control | [20] 86 % of control | [21] 93 % of control | [22] 91 % of control

CCOC(=O)C1(CCC#N)CC(C#N)(c2ccccc2)CCC1=O (stereo unspecified)
inactive: [13] 98 % of control | [14] 90 % of control | [15] 93 % of control

CC1CC(C)(C)[N+](C)=C(CC(C)(C)O)O1 (stereo unspecified)
inactive: [23] 113 % of control

O=C1c2ccccc2-c2ncccc21
inactive: [17] 103 % of control | [18] 98 % of control | [19] 102 % of control | [20] 109 % of control | [21] 92 % of control

Cn1cccc1C=O
inactive: [5] 102 % of control | [7] 100 % of control | [9] 97 % of control

COc1cccc(/C=C(/SC)S(C)=O)c1OC (stereo unspecified)
inactive: [23] 105 % of control | dose: 200.0 mg/kg/injection, schedule: Q04DX003 (ip), vehicle: saline 106 % of control | dose: 400.0 mg/kg/injection, schedule: Q04DX003 (ip), vehicle: saline 102 % of control

Cc1cccc(C)c1N1C(=O)C2C(C1=O)C1(Cl)C(Cl)=C(Cl)C2(Cl)C1(Cl)Cl (stereo unspecified)
inactive: [16] 95 % of control | [17] 101 % of control | [18] 114 % of control | [20] 101 % of control

CCOC(=O)CNS(=O)(=O)CCN1C(=O)c2ccccc2C1=O
inactive: [1] 98 % of control | [18] 100 % of control | [20] 98 % of control

CCOc1nc(N)nc(N)c1-c1ccc(Cl)cc1
inactive: dose: 100.0 mg/kg/injection, schedule: Q04DX002 (ip), vehicle: saline with Tween-80 92 % of control | dose: 200.0 mg/kg/injection, schedule: Q04DX002 (ip), vehicle: saline with Tween-80 96 % of control

CC12C=CC3(CCC4C(C)(C)C(=O)C(O)=CC4(C)C3CC1=O)C2 (stereo unspecified)
inactive: [17] 103 % of control | [18] 95 % of control | [19] 94 % of control | [20] 98 % of control | [21] 94 % of control | [22] 98 % of control

O=C(c1cccs1)c1c(C(F)(F)F)oc2c(c1=O)C=CC2
inactive: dose: 100.0 mg/kg/injection, schedule: Q01DX001 (ip), vehicle: carboxymethylcellulose (CMC) 100 % of control | dose: 200.0 mg/kg/injection, schedule: Q01DX001 (ip), vehicle: carboxymethylcellulose (CMC) 87 % of control | dose: 400.0 mg/kg/injection, schedule: Q01DX001 (ip), vehicle: carboxymethylcellulose (CMC) 89 % of control

CCCCCCCCCCCCNC1=C(Cl)C(=O)c2ccccc2C1=O
inactive: dose: 1.0 mg/kg/injection, schedule: Q01DX Z (ip), vehicle: methylcellulose (MC) 94 % of control | dose: 2.2 mg/kg/injection, schedule: Q01DX Z (ip), vehicle: methylcellulose (MC) 89 % of control

CCOC(=O)NCCCCCCNC(=O)OCC
inactive: [4] 97 % of control | [5] 95 % of control | [7] 95 % of control

CC(C)COC(=O)c1ccc(NC(=O)Nc2ccccc2)cc1
inactive: [5] 93 % of control | [6] 92 % of control | [7] 88 % of control | [8] 88 % of control | [9] 97 % of control | dose: 400.0 mg/kg/injection, schedule: Q04DX003 (ip), vehicle: saline with Tween-80 87 % of control

O=C(Nc1cccc(O)c1)Nc1cc([N+](=O)[O-])ccc1F
inactive: [2] 91 % of control | [17] 100 % of control and 90 % of control | [18] 93 % of control | dose: 200.0 mg/kg/injection, schedule: Q01DX001 (ip), vehicle: Klucel (hydroxypropylcellulose) (HPC) 98 % of control | [19] 94 % of control and 95 % of control | [20] 102 % of control | [3] 94 % of control | [21] 94 % of control and 100 % of control | [22] 95 % of control
